These are literature values, as cited in US20240374497A1, “COMPOSITIONS COMPRISING OR2AT4 AGONISTS” (Coty Inc., priority 2021, published 2024).

The test system of series [1] is human epidermal keratinocyte. Conditions: in vitro; selective activation of OR2AT4.
For another series, the system named is human epidermis. The settings on record: ex vivo; selective activation of OR2AT4.
For series [2], the target named is T1, olfactory receptor OR2AT4 (Homo sapiens, UniProt A6NND4).
T1 sequence (A6NND4 1-320): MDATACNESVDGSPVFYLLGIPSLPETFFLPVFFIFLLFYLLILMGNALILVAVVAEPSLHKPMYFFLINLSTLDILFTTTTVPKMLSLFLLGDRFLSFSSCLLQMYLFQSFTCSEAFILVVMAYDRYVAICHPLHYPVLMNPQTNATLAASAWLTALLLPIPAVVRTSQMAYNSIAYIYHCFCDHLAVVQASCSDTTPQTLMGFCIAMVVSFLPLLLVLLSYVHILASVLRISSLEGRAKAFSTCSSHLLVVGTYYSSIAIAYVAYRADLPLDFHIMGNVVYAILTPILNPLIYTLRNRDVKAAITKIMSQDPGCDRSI
Conditions: receptor expressed in the epithelium of human hair follicles.

Consider `CC1=CCC(CCC(C)C(C)O)C1(C)C` (stereo not drawn) [Sandalore®], for which the “human epidermal keratinocyte migration and proliferation” value in series [1] is “promotes human epidermal keratinocyte migration and proliferation”. The wound re-epithelialization result in the series on human epidermis was “promotes”.

For `CC1=CCC(CCC(C)C(C)O)C1(C)C` (stereo not drawn) [sandal pentanol, 3-methyl-5-(2,2,3-trimethylcyclopent-3-en-1-yl)pentan-2-ol], the “hair growth ex vivo” value in the series on human hair follicles was “prolongs hair growth”. In addition, in the series on human hair follicles (ex vivo), the apoptosis entry is “decreasing apoptosis” and the “production of growth factor IGF-1” value is “increasing the production of growth factor IGF-1”. Besides, the “effect on the olfactory receptor OR2AT4” value in series [2] is “stimulatory effect”.
